According to the NIST ThermoML archive (doi:10.1021/je800416y):

Assay: xn = mol fraction of the nth substance listed
Conditions: 101 kPa, Liquid

CN(CCO)CCO [N-methyldiethanolamine] + O
mass density [kg/m3]
Conditions | 313.15 K | 318.15 K | 323.15 K | 328.15 K | 333.15 K | 338.15 K
x1 = 0.0128 | – | 996.584 | 994.273 | 991.808 | 989.191 | 986.433
x1 = 0.0212 | – | 1000.48 | 998.073 | 995.518 | 992.82 | 989.984
x1 = 0.0498 | – | 1010.59 | 1007.87 | 1005.02 | 1002.04 | 998.939
x1 = 0.0645 | – | 1015.98 | 1013.06 | 1010.03 | 1006.73 | 1003.61
x1 = 0.0799 | – | 1019.74 | 1016.68 | 1013.51 | 1010.24 | 1006.85
x1 = 0.1332 | – | 1029.71 | 1026.23 | 1022.67 | 1019.02 | 1015.29
x1 = 0.1557 | – | 1031.92 | 1028.34 | 1024.69 | 1020.96 | 1017.15
x1 = 0.1944 | – | 1035.54 | 1031.78 | 1027.97 | 1024.08 | 1020.13
x1 = 0.2407 | – | 1036.95 | 1033.11 | 1029.25 | 1025.29 | 1021.29
x1 = 0.2725 | – | 1037.63 | 1033.74 | 1029.77 | 1025.95 | 1021.9
x1 = 0.366 | – | 1037.2 | 1033.24 | 1029.24 | 1025.2 | 1021.1
x1 = 0.4302 | – | 1035.6 | 1031.66 | 1027.68 | 1023.66 | 1019.6
x1 = 0.5642 | – | 1031.61 | 1027.75 | 1023.83 | 1019.88 | 1015.88
x1 = 0.6687 | 1030.08 | 1026.25 | 1022.4 | 1018.52 | 1014.62 | 1010.7
x1 = 0.7531 | 1028.73 | 1025.02 | 1020.86 | 1016.84 | 1012.83 | 1008.96
